Data from EP4741427A1, “GLYCAN, PREPARATION METHOD THEREFOR AND USE THEREOF, AND ANTI-TUMOR DRUG” (Peking University, priority 2023, dated 2025).

Legend:
Aspc-1 = experiment: CCK-8 proliferation inhibition of pancreatic cancer cells; format: cell-based; details: 72 h
Excerpt: (§1) Three pancreatic cancer cell lines (Aspc-1, Bxpc-3, Panc-1) and the hepatocyte cell line LO2 used in the experiments were provided by Peking University People's Hospital and the Institute of Materia Medica, Chinese Academy of Medical Sciences. The culture conditions for Aspc-1 and Bxpc-3 cells were RPMI 1640 medium (Gibco, Thermo Fisher Scientific, USA) supplemented with 10% fetal bovine serum (HyClone, Thermo Fisher Scientific, USA) and 1% penicillin/streptomycin (Life Technologies, Thermo Fisher Scientific, USA). The culture conditions for Panc-1 and LO2 cells were DMEM medium (Gibco, Thermo Fisher Scientific, USA) supplemented with 10% fetal bovine serum (HyClone, Thermo Fisher Scientific, USA) and 1% penicillin/streptomycin (Life Technologies, Thermo Fisher Scientific, USA). Cell culture was conducted at 37°C with adequate humidity and 5% CO2 concentration.
(§2) Three types of pancreatic cancer cells (Aspc-1, Bxpc-3, Panc-1) were seeded into 96-well plates at a density of 5×10^3 cells/well (100 µL). After the cells adhered, gemcitabine (50 µM), compound 2-11 (140-mer 2-11, 50 µM), 2-30 (70-mer 2-30, 50 µM), 2-31 (40-mer 2-31, 50 µM), 2-32 (30-mer 2-32, 50 µM), 2-33 (10-mer A 2-33, 50 µM), 2-34 (10-mer B 2-34, 50 µM), 2-35 (5-mer A 2-35, 50 µM), 2-36 (5-mer B 2-36, 50 µM), and 2-37 (5-mer C 2-37, 50 µM) were added, respectively. The cells were co-incubated for 72 h. Then, 10 µL of CCK-8 reagent was added to each well and incubated at 37°C for 2 h. After thorough mixing, the absorbance at 450 nm was measured by using a microplate reader. A cell survival rate was calculated by using the following formula: Cell survival rate(%) = (ODsample−OD_blank)/(OD_control−OD_blank) × 100%. [formula]
(§3) Three types of pancreatic cancer cells (Aspc-1, Bxpc-3, and Panc-1) were seeded into 96-well plates at a density of 5×10^3 cells/well (100 µL). After the cells adhered, different concentrations of compound 2-34 (3.125 µM, 6.25 µM, 12.5 µM, 25 µM, 50 µM, 100 µM) were added. The cells were co-incubated for 72 h. Then, 10 µL of CCK-8 reagent was added to each well and incubated at 37°C for 2 h. After thorough mixing, the absorbance at 450 nm was measured by using a microplate reader, and the cell survival rate was calculated.

Panc-1 = experiment: as above; format: cell-based; details: 72 h
Excerpt: as §1, §2, §3

LO2 hepatocytes = experiment: CCK-8 cytotoxicity on hepatocytes; format: cell-based, human; details: concentration up to 100 µM, 72 h
Excerpt: as §1
LO2 hepatocytes were seeded into 96-well plates at a density of 5×10^3 cells/well (100 µL). After the cells adhered, different concentrations of compound 2-34 (3.125 µM, 6.25 µM, 12.5 µM, 25 µM, 50 µM, 100 µM) and the positive control drug gemcitabine (3.125 µM, 6.25 µM, 12.5 µM, 25 µM, 50 µM, 100 µM) were added, respectively. The cells were co-incubated for 72 h. […] After thorough mixing, the absorbance at 450 nm was measured by using a microplate reader, and the cell survival rate was calculated.

Panc-1 cells [1] = experiment: Cell cycle, PI staining with flow cytometry; format: cell-based; details: 72 h
Protocol: Pancreatic cancer Panc-1 cells were seeded into 24-well plates at a density of 6×10^4 cells/well. After the cells adhered, different concentrations of compound 2-34 (25 µM, 50 µM, 100 µM) were added and co-incubated for 72 h. All cells were collected, washed 2 times with PBS, and fixated in 70% (volume fraction) ethanol overnight. The fixated cells were collected, washed 2 times with PBS, and stained with PI staining solution containing RNase (ribonuclease) in the dark for 30 min. The nucleic acid content in the cells was detected by using a flow cytometer, and the percentage of cells in each cycle phase was analyzed by using ModFit software.

Panc-1 cells [2] = experiment: Apoptosis, Annexin V-FITC/PI double staining with flow cytometry; format: cell-based; details: 72 h
Protocol: Pancreatic cancer Panc-1 cells were seeded into 24-well plates at a density of 3×10^4 cells/well. After the cells adhered, different concentrations of compound 2-34 (25 µM, 50 µM, 100 µM) were added and co-incubated for 72 h. All cells were collected, washed 2 times with PBS, and resuspended in binding buffer (Beyotime, Shanghai, China). Then, 5 µL of Annexin V-FITC (fluorescein isothiocyanate) and 10 µL of PI (propidium iodide) dye were added in sequence, and the cells were stained in the dark for 20 min. The apoptosis rate was detected by using a flow cytometer (Beckman CytoFLEX), and the specific apoptosis ratio was analyzed by using CytoFLEX software.

Bxpc-3 = experiment: CCK-8 proliferation inhibition of pancreatic cancer cells; format: cell-based; details: 72 h
Excerpt: as §1, §2, §3

Nc1ccn([C@@H]2O[C@H](CO)[C@@H](O)C2(F)F)c(=O)n1 [gemcitabine, reference compound]
inhibition at 50 µM (Aspc-1; Homo sapiens, ASPC1, Aspc-1, 50 µM, read-out: inhibition rates): 61.4%
inhibition at 50 µM (Panc-1; Homo sapiens, Panc-1, 50 µM, read-out: inhibition rates): 23.2%

Octylβ-D-galactopyranosyl-(1→6)-β-D-galactopyranosyl-(1→6)-β-D-galactopyranosyl-( 1→6)-{α-L-arabinofuranosyl-(1→5)-α-L-arabinofuranosyl-(1→5)-α-L-arabinofuransyl-(1→5)-[ β-D-galactopyranosyl-(1→3)]-α-L-arabinofuranosyl-(1→3)-β-D-galactopyranosyl-(1→3)}-β-D-galactopyranoside [compound 2-34]
cytotoxicity towards the growth of LO2 hepatocytes (LO2 hepatocytes): no cytotoxicity
number of cells in the G2 phase (Panc-1 cells [1]; Panc-1, 25 µM, 50 µM, 100 µM): remains relatively stable with minor changes
proportion of cells in the G1 phase (Panc-1 cells [1]; Panc-1, 25 µM): 51.33%
proportion of cells in the S phase (Panc-1 cells [1]; Panc-1, 25 µM): 22.19%
proportion of cells in the G1 phase (Panc-1 cells [1]; Panc-1, 50 µM): 46.99%
proportion of cells in the S phase (Panc-1 cells [1]; Panc-1, 50 µM): 27.66%
proportion of cells in the G1 phase (Panc-1 cells [1]; Panc-1, 100 µM): 42.43%
proportion of cells in the S phase (Panc-1 cells [1]; Panc-1, 100 µM): 36.29%
apoptosis rate (Panc-1 cells [2]; Panc-1, 25 µM): 31.99%
apoptosis rate (Panc-1 cells [2]; Panc-1, 50 µM): 31.92%
apoptosis rate (Panc-1 cells [2]; Panc-1, 100 µM): 67.59%
inhibition rates (Bxpc-3; Bxpc-3, 50 µM): 29.5%
proliferation inhibition, concentration dependence (Bxpc-3; Bxpc-3, 3.125-100 µM): significant concentration dependence
inhibition rates (Aspc-1; Aspc-1, 50 µM): 74.9%
proliferation inhibition, concentration dependence (Aspc-1; Aspc-1, 3.125-100 µM): significant concentration dependence
inhibition rates (Panc-1; Panc-1, 50 µM): 72.1%
proliferation inhibition, concentration dependence (Panc-1; Panc-1, 3.125-100 µM): significant concentration dependence
